Source: patent publication US20220362282A1, “COMPOSITIONS AND METHODS FOR TREATING EYE DISEASES” (ADS THERAPEUTICS LLC, priority 2019, published 2022)
Blank lines part the entries; values can stand above or below the compound they belong to.

Legend:
[1] = tested on: Patients with Primary or Recurrent Pterygium; experiment: Phase 2a clinical trial in pterygium patients: Pterygium Symptom and Life Quality (PSLQ) questionnaire scores; assay type: in vivo, human
From the text: 2-HP-β-CD Formulation I was used as vehicle.
A trend of effects also remained after the stop of treatment at weeks 8, 16, and 24. The other questions didn't generate statistically significant effects.
These ocular symptoms are often observed in MGD patients. Scores of these symptoms were graded by patients as part of PSLQ questionnaires.

[2] = Screening of CDs and CD derivatives for ability to dissolve cholesterol in water (HPLC); assay type: physicochemical; details: for Concentrations of Cholesterol in CDs Solution: 5 days shaking at ambient; for Ability to dissolve cholesterol in water: CD 1, 10, 20% (w/v)
Experimental: Purpose: To determine the level of cholesterol that can be dissolved in water when 10 different CDs and their derivatives were added at three concentrations.
All CD solutions were prepared with starting 20% (w/v) solutions by accurately adding about 800 mg CDs in 4 milliliter water, 1% and 10% were diluted from this 20% solution to 2 mL for each sample preparation experiment.
Cholesterol was added accurately to all CD water solutions at about 40 mg/mL or about 80 mg per 2 mL. This amount of cholesterol was enough to fully saturate the CD solutions with white settlements or floating or both. All samples were conditioned at ambient by shaking using a rotator for 5 days.
After the equilibration with shaking for 5 days at ambient, the clear or semi-clear portion was filtered with 0.2 μm filter. 50 μL of the filtered solution was diluted with 450 μL methanol (10 X) for HPLC analysis. NOVAPAK phenyl column (7.6 cm by 3.9 mm I.D.) was used with a mobile phase of acetonitrile: water (70:30) at a flow rate of 0.5 ml/min and detection at UV at 210 nm.

[3] = cited from earlier work; for Ability to form soluble complex with cholesterol in aqueous solution: 37° C., CDs 1.0 × 10^−2 M; for Increase in Absorbance (600 nm) Due to Cholesterol Dissolved by CDs: Aqueous solution at 37° C., concentration of CDs 1.0 × 10^−2 M
pterygium patients = experiment: Safety (adverse events) of 10% HP-β-CD vehicle in the Phase 2 pterygium clinical trial; details: 10% as vehicle in the Phase 2 pterygium clinical trial
Experimental: The data was derived from the stage 2 of the Phase 2 clinical trial in pterygium patients who were topically administered 10% HP-β-CD as the vehicle of the testing article. The patients were treated for 4 weeks with three-time a day dosing and then followed up for another 20 weeks after the stop of treatment. The safety evaluation included the 20 weeks of non-treatment period.
All safety analyses were conducted on the safety population. MedDRA nomenclature was used to code adverse events. The number and percent of patients reporting adverse events were tabulated based on preferred terms and/or system organ class. Summary tables were generated for all adverse events regardless of causality as well as for treatment-related adverse events.

[4] = Baseline, Modified Intent-to-Treat Population, N = 23
[5] = Week 2, 10% (w/w) TID for 4 weeks, N = 23
[6] = Week 4, 10% (w/w) TID for 4 weeks, N = 23
[7] = Week 8 (after treatment period), N = 23
[8] = Week 16 (after treatment period), N = 23
[9] = Week 24 (after treatment period), N = 23

Compound: 2-hydroxypropyl-alpha-cyclodextrin [HP-ACD, reference compound]
- Ability to dissolve cholesterol in water [2]: no detectable cholesterol dissolving activity

Compound: OC[C@H]1O[C@@H]2O[C@H]3[C@H](O)[C@@H](O)[C@@H](O[C@H]4[C@H](O)[C@@H](O)[C@@H](O[C@H]5[C@H](O)[C@@H](O)[C@@H](O[C@H]6[C@H](O)[C@@H](O)[C@@H](O[C@H]7[C@H](O)[C@@H](O)[C@@H](O[C@H]1[C@H](O)[C@H]2O)O[C@@H]7CO)O[C@@H]6CO)O[C@@H]5CO)O[C@@H]4CO)O[C@@H]3CO [ACD, alpha-cyclodextrin]
- Ability to form soluble complex with cholesterol in aqueous solution [3]: do not form soluble complexes
- Increase in Absorbance (600 nm) Due to Cholesterol Dissolved by CDs [3]: 0

Compound: OC[C@H]1O[C@@H]2O[C@H]3[C@H](O)[C@@H](O)[C@@H](O[C@H]4[C@H](O)[C@@H](O)[C@@H](O[C@H]5[C@H](O)[C@@H](O)[C@@H](O[C@H]6[C@H](O)[C@@H](O)[C@@H](O[C@H]7[C@H](O)[C@@H](O)[C@@H](O[C@H]8[C@H](O)[C@@H](O)[C@@H](O[C@H]1[C@H](O)[C@H]2O)O[C@@H]8CO)O[C@@H]7CO)O[C@@H]6CO)O[C@@H]5CO)O[C@@H]4CO)O[C@@H]3CO [BCD, beta-cyclodextrin]
- Ability to form soluble complex with cholesterol in aqueous solution [3]: do not form soluble complexes

Compound: OC[C@H]1O[C@@H]2O[C@H]3[C@H](O)[C@@H](O)[C@@H](O[C@H]4[C@H](O)[C@@H](O)[C@@H](O[C@H]5[C@H](O)[C@@H](O)[C@@H](O[C@H]6[C@H](O)[C@@H](O)[C@@H](O[C@H]7[C@H](O)[C@@H](O)[C@@H](O[C@H]8[C@H](O)[C@@H](O)[C@@H](O[C@H]9[C@H](O)[C@@H](O)[C@@H](O[C@H]1[C@H](O)[C@H]2O)O[C@@H]9CO)O[C@@H]8CO)O[C@@H]7CO)O[C@@H]6CO)O[C@@H]5CO)O[C@@H]4CO)O[C@@H]3CO [GCD, gamma-cyclodextrin]
- Ability to form soluble complex with cholesterol in aqueous solution [3]: do not form soluble complexes
- Increase in Absorbance (600 nm) Due to Cholesterol Dissolved by CDs [3]: 0

Compound: COC(=O)c1ccc2c(c1)NC(=O)/C2=C(\Nc1ccc(N(C)C(=O)CN2CCN(C)CC2)cc1)c1ccccc1 [Nintedanib, reference compound]
- PSLQ ocular symptom score, Nintedanib 0.2% vs Vehicle ([1]; pterygium patients with dry eye condition): no statistically significant differences

Continued, in another order:

- Concentrations of Cholesterol in CDs Solution ([2]; CD 1% (w/v) in water): 10 µg/mL
- Ability to dissolve cholesterol in water [2]: substantial ability
- Concentrations of Cholesterol in CDs Solution ([2]; CD 10% (w/v) in water): 820 µg/mL
- Concentrations of Cholesterol in CDs Solution ([2]; CD 20% (w/v) in water): 2980 µg/mL
Compound: 2-Hydroxypropyl-beta-cyclodextrin [2-HP-β-CD]
- PSLQ scores compared to the baseline ([1]; 2-HP-β-CD-treated group, N = 23): significant improvements
- Magnitude of reduction in PSLQ ocular symptom score, dry eye vs no dry eye patients ([1]; 10%, pterygium patients with vs without dry eye condition): statistically significant bigger
- PSLQ Average Ocular Symptom Score, Mean (SD) [1, 4]: 0.88 (0.81)
- PSLQ Average Quality of Life Impact Score, Mean (SD) [1, 4]: 0.57 (0.92)
- PSLQ Average Vision-Related Functioning Score, Mean [1, 4]: 0.57
- PSLQ Overall Average Score, Mean (SD) [1, 4]: 0.70 (0.66)
- PSLQ Average Ocular Symptom Score, Change from Baseline, Mean (SD) [1, 5]: −0.36 (0.69)
- PSLQ Average Quality of Life Impact Score, Change from Baseline, Mean (SD) [1, 5]: −0.19 (0.39)
- PSLQ Average Vision-Related Functioning Score, Change from Baseline, Mean [1, 5]: −0.27
- PSLQ Overall Average Score, Change from Baseline, Mean (SD) [1, 5]: −0.28 (0.45)
- PSLQ Average Ocular Symptom Score, Change from Baseline, Mean (SD) [1, 6]: −0.46 (0.71)
- PSLQ Average Quality of Life Impact Score, Change from Baseline, Mean (SD) [1, 6]: −0.19 (0.50)
- PSLQ Average Vision-Related Functioning Score, Change from Baseline, Mean [1, 6]: −0.48
- PSLQ Overall Average Score, Change from Baseline, Mean (SD) [1, 6]: −0.35 (0.51)
- PSLQ Average Ocular Symptom Score, Change from Baseline, Mean (SD) [1, 7]: −0.39 (0.84)
- PSLQ Average Quality of Life Impact Score, Change from Baseline, Mean (SD) [1, 7]: −0.17 (0.52)
- PSLQ Average Vision-Related Functioning Score, Change from Baseline, Mean [1, 7]: −0.43
- PSLQ Overall Average Score, Change from Baseline, Mean (SD) [1, 7]: −0.30 (0.55)
- PSLQ Average Ocular Symptom Score, Change from Baseline, Mean (SD) [1, 8]: −0.29 (0.79)
- PSLQ Average Quality of Life Impact Score, Change from Baseline, Mean (SD) [1, 8]: −0.13 (0.68)
- PSLQ Average Vision-Related Functioning Score, Change from Baseline, Mean [1, 8]: −0.23
- PSLQ Overall Average Score, Change from Baseline, Mean (SD) [1, 8]: −0.20 (0.64)
- PSLQ Average Ocular Symptom Score, Change from Baseline, Mean (SD) [1, 9]: −0.33 (0.90)
- PSLQ Average Quality of Life Impact Score, Change from Baseline, Mean (SD) [1, 9]: −0.15 (0.59)
- PSLQ Average Vision-Related Functioning Score, Change from Baseline, Mean [1, 9]: −0.11
- PSLQ Overall Average Score, Change from Baseline, Mean (SD) [1, 9]: −0.22 (0.73)
- Ability to form soluble complex with cholesterol in aqueous solution [3]: only a weak ability
- Increase in Absorbance (600 nm) Due to Cholesterol Dissolved by CDs [3]: 0.01
- Safety profile (pterygium patients): excellent safety profile

- Ability to dissolve cholesterol in water [2]: extremely low levels
- Concentrations of Cholesterol in CDs Solution ([2]; CD 10% (w/v) in water): 3 µg/mL
- Concentrations of Cholesterol in CDs Solution ([2]; CD 20% (w/v) in water): 11 µg/mL
Compound: 2-hydroxypropyl-gamma-cyclodextrin [HP-GCD, reference compound]

- Concentrations of Cholesterol in CDs Solution ([2]; CD 1% (w/v) in water): 30 µg/mL
- Ability to dissolve cholesterol in water [2]: about half lower
- Concentrations of Cholesterol in CDs Solution ([2]; CD 10% (w/v) in water): 2570 µg/mL
- Concentrations of Cholesterol in CDs Solution ([2]; CD 20% (w/v) in water): 3380 µg/mL
Compound: OC[C@H]1O[C@H](O[C@H]2[C@H](O)[C@@H](O)[C@@H](OC[C@H]3O[C@@H]4O[C@H]5[C@H](O)[C@@H](O)[C@@H](O[C@H]6[C@H](O)[C@@H](O)[C@@H](O[C@H]7[C@H](O)[C@@H](O)[C@@H](O[C@H]8[C@H](O)[C@@H](O)[C@@H](O[C@H]9[C@H](O)[C@@H](O)[C@@H](O[C@H]%10[C@H](O)[C@@H](O)[C@@H](O[C@H]3[C@H](O)[C@H]4O)O[C@@H]%10CO)O[C@@H]9CO)O[C@@H]8CO)O[C@@H]7CO)O[C@@H]6CO)O[C@@H]5CO)O[C@@H]2CO)[C@H](O)[C@@H](O)[C@@H]1O [6-AM-BCD, 6-O-alpha-maltosyl-beta-cyclodextrin, reference compound]

- Concentrations of Cholesterol in CDs Solution ([2]; CD 1% (w/v) in water): 190 µg/mL
- Ability to dissolve cholesterol in water [2]: the best
- Concentrations of Cholesterol in CDs Solution ([2]; CD 10% (w/v) in water): 5130 µg/mL
- Concentrations of Cholesterol in CDs Solution ([2]; CD 20% (w/v) in water): 10430 µg/mL
Compound: COC[C@H]1O[C@@H]2O[C@H]3[C@H](O)[C@@H](OC)[C@@H](O[C@H]4[C@H](O)[C@@H](OC)[C@@H](O[C@H]5[C@H](O)[C@@H](OC)[C@@H](O[C@H]6[C@H](O)[C@@H](OC)[C@@H](O[C@H]7[C@H](O)[C@@H](OC)[C@@H](O[C@H]8[C@H](O)[C@@H](OC)[C@@H](O[C@H]1[C@H](O)[C@H]2OC)O[C@@H]8COC)O[C@@H]7COC)O[C@@H]6COC)O[C@@H]5COC)O[C@@H]4COC)O[C@@H]3COC [DM-BCD, heptakis (2,6-di-O-methyl)-beta-cyclodextrin]
- Ability to form soluble complex with cholesterol in aqueous solution [3]: strong ability
- Increase in Absorbance (600 nm) Due to Cholesterol Dissolved by CDs [3]: 0.336

- Concentrations of Cholesterol in CDs Solution ([2]; CD 1% (w/v) in water): 150 µg/mL
- Ability to dissolve cholesterol in water [2]: the best
- Concentrations of Cholesterol in CDs Solution ([2]; CD 10% (w/v) in water): 6030 µg/mL
- Concentrations of Cholesterol in CDs Solution ([2]; CD 20% (w/v) in water): 14200 µg/mL
Compound: random methyl-beta-cyclodextrin [M-BCD]

- Concentrations of Cholesterol in CDs Solution ([2]; CD 1% (w/v) in water): 2 µg/mL
- Concentrations of Cholesterol in CDs Solution ([2]; CD 10% (w/v) in water): 30 µg/mL
- Concentrations of Cholesterol in CDs Solution ([2]; CD 20% (w/v) in water): 150 µg/mL
Compound: sulfobutylated beta-cyclodextrin [SBE-BCD]
